From patent US9364476B2, “Methods of treating a Bruton's Tyrosine Kinase disease or disorder” (Celgene Avilomics Research, Inc., priority 2011, dated 2016)
Several values for one entry are separate records, joined by “and”; a condition that tells them apart may be missing. Identical values can stand only once. Like-named read-outs stand apart in the source and are kept apart here.

Legend:
[1] = target: Btk (Homo sapiens, UniProt Q06187); conditions: enzymatic and cellular assays; cited from earlier work
[2] = system: B-cell; conditions: cited from earlier work
[3] = Solubility of the API; type: physicochemical
[4] = Environmental stability (heat, acid, base); type: physicochemical
[5] = for maximum tolerated dose (MTD): dose escalation cohorts, besylate
From the text: (§1) Intrapatient dose escalation was allowed.
Enrollment for Cohorts 1-5 was not restricted or contingent on the basis of specific B-NHL/CLL/WM diagnosis. […] For example, the physician-investigator may elect to rest a patient due to occurrence or recurrence of adverse events. […] In this context, treatment duration refers to the time a patient is enrolled in the study, inclusive of all rest periods, until treatment is discontinued.
Six (6) subjects diagnosed with CLL and six (6) patients diagnosed with B-NHL were enrolled in each of Cohorts 6A and 6B. Cohorts 6A and 6B were enrolled concurrently, and if meeting the requirements for continued escalation, Cohorts 7A and 7B will be enrolled and evaluated.
Hematologic DLTs included Grade 4 anemia or thrombocytopenia, Grade 4 neutropenia greater than 5 days despite granulocyte colony-stimulating factor (G-CSF) and Grade 3 or higher febrile neutropenia.
Dose escalation will continue until a DLT is observed. […] One key objective for the dose escalation portion of the study was to identify the maximum tolerated dose (MTD) and Optimal Biological Effect dose (OBE). The OBE was defined as: […]

[6] = system: relapsed or refractory B-NHL, CLL/SLL, or WM; assay: Dose escalation study: disease progression and treatment duration; type: in vivo, human
Method: as §1
Subjects with CLL experiencing nodal response with lymphocytosis (which may be related to drug-mediated lymphocyte redistribution) were also eligible for additional treatment. Subjects with WM with increasing serum Immunoglobulin M (“IgM”) levels at the end of the first 28-day cycle were also evaluated for lymphadenopathy/organomegaly and marrow infiltration. Investigators were permitted to use judgment in determining whether to continue these subjects into the second 28-day cycle if there was a discordant response between increased IgM and stable or decreased lymphadenopathy/organomegaly and marrow infiltration.

[7] = system: CLL patients; assay: Dose escalation study: lymph node size and absolute lymphocyte count in CLL patients; type: in vivo, human
From the text: FIG. 6 depicts the change in lymph node size in CLL patients with available lymph node assessment, twelve (12) of whom are from cohorts 1-5. These patients have experienced some degree of lymph node reduction: 2/12 patients have experienced nodal response (>50% reduction); 6/12 patients have experienced between 25 and 50% reduction over the treatment and follow-up periods indicated in the figure. The doses indicated refer to the patient's starting dose. The numbers at the top of each bar indicate the number of cycles completed for each subject as of the last available lymph node measurement.
FIG. 7 depicts the change in absolute lymphocyte count (ALC) in CLL patients. As of Sep. […] All CLL subjects with follow-up through cycle 1 at all dose levels are shown. Subjects treated with 750 mg or higher are indicated under the dotted line.

[8] = system: B-NHL patients; assay: Dose escalation study: lymph node size in B-NHL patients; type: in vivo, human; conditions: dose escalation cohorts
From the text: The doses indicated refer to the patient's starting dose. The numbers at the top of each bar indicate the number of cycles completed for each subject as of the last available lymph node measurement.

[9] = Plasma API levels by LC-MS-MS (PK); type: in vivo, human
Method: Plasma API levels were assessed by LC-MS-MS.

[10] = CLL expansion cohort C: DLT; type: in vivo, human; conditions: 24 subjects, 750 mg po QD
Method: (§2) 24 subjects were enrolled into the CLL expansion cohort C and were assessed for safety, tolerability, DLT, PK, PD and disease response. Each subject was evaluated prior to enrollment to ensure that minimum hematological criteria were satisfied: […]

[11] = system: Relapsed and/or refractory CLL/SLL; assay: CLL expansion cohort C: disease response; type: in vivo, human
Method: After completion of observation for DLTs in Example 1, the accumulated safety, PK, and PD data from Example 1 were evaluated to select a preliminary recommended Phase 2 dose for administration to additional subjects enrolled into an independent and non-randomized diagnosis-specific expansion cohorts in the Diagnosis Specific Expansion Cohorts study. • Cohort A: Relapsed and/or refractory diffuse large B-cell lymphoma (DLBCL); • Cohort B: Relapsed and/or refractory indolent and mantle B-cell lymphomas, Waldenstrom's macroglobulinemia, and other B lymphoproliferative disorders of uncertain malignant potential (at least 10 of the 24 enrollment slots will be reserved for subjects with mantle cell lymphoma); and • Cohort C: Relapsed and/or refractory CLL/SLL.
as §2

[12] = target: Spleen tyrosine kinase (Syk) (Homo sapiens, UniProt P43405); conditions: DLBCL, CLL, and mantle cell lymphoma; cited from earlier work
[13] = 5/21 subjects, regardless of dose
[14] = cohort 5, 750 mg QD, initial, through May 22, 2012
[15] = cohorts 1-5 through May 22, 2012
[16] = twelve CLL patients from cohorts 1-5 with lymph node assessment
[17] = eleven patients from Expansion Cohort C, 750 mg QD

Sequence of Btk (Q06187 whole entry, species assumed): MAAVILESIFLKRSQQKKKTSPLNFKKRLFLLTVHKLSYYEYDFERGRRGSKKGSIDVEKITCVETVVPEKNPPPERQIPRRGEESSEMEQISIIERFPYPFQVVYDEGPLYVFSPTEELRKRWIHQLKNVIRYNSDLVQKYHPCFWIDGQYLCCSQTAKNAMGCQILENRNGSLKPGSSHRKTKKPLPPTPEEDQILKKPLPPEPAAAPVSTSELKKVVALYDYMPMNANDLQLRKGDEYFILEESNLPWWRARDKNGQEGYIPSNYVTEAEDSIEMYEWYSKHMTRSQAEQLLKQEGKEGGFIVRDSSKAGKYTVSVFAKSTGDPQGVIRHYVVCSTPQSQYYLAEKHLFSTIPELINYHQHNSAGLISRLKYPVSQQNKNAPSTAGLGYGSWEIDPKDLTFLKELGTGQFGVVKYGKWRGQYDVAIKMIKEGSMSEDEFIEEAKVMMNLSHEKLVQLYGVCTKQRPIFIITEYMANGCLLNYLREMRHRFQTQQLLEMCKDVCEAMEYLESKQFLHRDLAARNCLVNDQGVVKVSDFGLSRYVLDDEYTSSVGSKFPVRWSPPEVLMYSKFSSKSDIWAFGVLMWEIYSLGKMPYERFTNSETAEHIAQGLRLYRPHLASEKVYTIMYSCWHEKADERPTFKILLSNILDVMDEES

## C=CC(=O)Nc1cccc(Nc2nc(Nc3ccc(OCCOC)cc3)ncc2F)c1 [Compound 1, N-(3-(5-fluoro-2-(4-(2-methoxyethoxy)phenylamino)pyrimidin-4-ylamino)phenyl)acrylamide]
[1]
  mode of BTK inhibition: covalent, irreversible inhibition of BTK
[2]
  effect on B-cell proliferation and activation: inhibit B-cell proliferation and activation

## C=CC(=O)Nc1cccc(Nc2nc(Nc3ccc(OCCOC)cc3)ncc2F)c1.O=S(=O)(O)c1ccccc1 [N-(3-(5-fluoro-2-(4-(2-methoxyethoxy)phenylamino)pyrimidin-4-ylamino)phenyl)acrylamide besylate]
[3]; ethanol, organic solvent or mixture, read-out: solubility in ethanol
  solubility: ~10000 µg/mL
[3]; water, read-out: solubility in water
  solubility: ~160 µg/mL
[4]
  environmental instabilities (i.e. heat, acid, base) that require special handling: no environmental instabilities
[5]; [13]
  treatment emergent AE: grade 1 or 2 headache: 23.8%
  treatment emergent AE: thrombocytopenia: 23.8%
[5]; 15/21 subjects, regardless of dose
  treatment emergent AE: grade 1 or 2 transient diarrhea: 71.4%
[5]; besides the follicular lymphoma patient in cohort 3
  other DLTs: no other DLTs have occurred
[5]; cohort 1
  serious adverse event not related to the study: disseminated Herpes zoster: 1 patient
  serious adverse event not related to the study: pneumonia: 1 patient
[5]; cohort 1, 125 mg QD
  incidence of abdominal distension: 1 patient
  incidence of contusion (bruising): 2 patients
  incidence of diarrhea: 3 patients
  incidence of dyspepsia: 1 patient
  incidence of dyspnea: 1 patient
  incidence of fatigue: 2 patients
  incidence of headache: 2 patients
  incidence of jaw pain: 1 patient
  incidence of lymph node pain: 2 patients
  incidence of muscle spasm: 1 patient
  incidence of nausea: 1 patient
  incidence of pneumonia: 1 patient
  incidence of rash: 1 patient
  incidence of sinusitis: 1 patient
  incidence of thrombocytopenia: 1 patient
  incidence of upper respiratory infection: 2 patients
  incidence of urticaria: 1 patient
  incidence of weight loss: 1 patient
[5]; cohort 2
  serious adverse event not related to the study: atrial fibrillation: 1 patient
[5]; cohort 2, 250 mg QD
  incidence of abdominal distension: 1 patient
  incidence of cough: 1 patient
  incidence of decreased diarrhea: 2 patients
  incidence of dysgeusia: 1 patient
  incidence of dyspnea: 1 patient
  incidence of fatigue: 1 patient
  incidence of nausea: 1 patient
  incidence of neutropenia: 1 patient
  incidence of pneumonia: 1 patient
  incidence of weight loss: 1 patient
[5]; cohort 3
  serious adverse event not related to the study: hematuria/urinary retention: 1 patient
  serious adverse event not related to the study: pneumonia/thrombocytopenia/ANC decreased: 1 patient
[5]; cohort 3 (400 mg QD), follicular lymphoma subject, first 28-day cycle
  dose limiting toxicity: thrombocytopenia (low platelet count; Grade 4)
[5]; cohort 3, 400 mg QD
  incidence of anemia: 1 patient
  incidence of cough: 2 patients
  incidence of diarrhea: 4 patients
  incidence of fatigue: 1 patient
  incidence of headache: 1 patient
  incidence of influenza-like illness: 1 patient
  incidence of insomnia: 1 patient
  incidence of jaw pain: 1 patient
  incidence of muscle spasm: 1 patient
  incidence of neutropenia: 2 patients
  incidence of pneumonia: 1 patient
  incidence of rash: 1 patient
  incidence of thrombocytopenia: 3 patients
  incidence of upper respiratory infection: 2 patients
  incidence of urinary retention: 1 patient
  incidence of urticaria: 1 patient
[5]; cohort 4
  serious adverse event not related to the study: tonsillar hypertrophy: 1 patient
[5]; cohort 4 (625 mg QD), CLL patient, after three cycles
  neutropenia (adverse event) leading to discontinuation, after: 85 days
[5]; cohort 4, 625 mg QD
  incidence of abdominal pain: 2 patients
  incidence of anemia: 1 patient
  incidence of dehydration: 2 patients
  incidence of diarrhea: 5 patients
  incidence of dysgeusia: 2 patients
  incidence of dyspepsia: 2 patients
  incidence of eye pain: 2 patients
  incidence of headache: 2 patients
  incidence of influenza-like illness: 1 patient
  incidence of insomnia: 1 patient
  incidence of nausea: 2 patients
  incidence of neutropenia: 1 patient
  incidence of sinusitis: 1 patient
  incidence of thrombocytopenia: 1 patient
  incidence of urinary retention: 1 patient
[5]; [14]
  incidence of abdominal pain: 1 patient
  incidence of diarrhea: 1 patient
[5]; [15]
  Grade 3-4 neutropenia: 3 patients
  Grade 3-4 pneumonia: 2 patients
  Grade 3-4 thrombocytopenia: 4 patients
[5]
  maximum tolerated dose (MTD): not yet been reached
[5]; listed as API
  maximum tolerated dose (MTD): not been reached
[5]; except for decreased ANC (neutropenia), pneumonia and thrombocytopenia
  severity of adverse events reported: Grade 1 and 2
[5]; subjects/21, probably related
  Grade 3/4 adverse event: neutropenia: 3/21
  Grade 3/4 adverse event: pneumonia: 2/21
  Grade 3/4 adverse event: thrombocytopenia: 4/21
[6]; cohort 1 (125 mg), three CLL subjects
  DLT or disease progression: None of the subjects showed DLT or disease progression
[6]; cohort 1 (starting 125 mg QD), three CLL patients, one value per patient, listed as API, besylate
  progressive disease after: 187 days and 319 days and 332 days
[6]; cohort 2 (250 mg QD), DLBCL subject
  progressive disease after: 28 days
[6]; cohort 2 (250 mg), three subjects
  subjects showing no DLT or disease progression: Two of the three
[6]; cohort 3 (400 mg QD), two CLL patients, one value per patient, listed as API, besylate
  progressive disease after: 168 days and 231 days
[6]; cohort 3 (400 mg), six subjects, one MZL, two CLL
  patients showing no DLT or disease progression: Three
[6]; cohort 4 (625 mg QD), DLBCL patient
  progressive disease after: 33 days
[6]; cohort 4 (625 mg QD), mantle cell lymphoma patient
  progressive disease after: 105 days
[6]; cohort 4 (625 mg QD), two follicular lymphoma patients, one value per patient, listed as API, besylate
  progressive disease after: 56 days and 212 days
[6]; cohort 4 (625 mg), six subjects, follicular lymphoma
  patients showing no DLT or disease progression: One
[6]; cohort 5 (750 mg QD), MLBCL patient
  progressive disease after: 64 days
[6]; cohort 5 (750 mg), six subjects
  patients showing no DLT or disease progression: Five
[6]; cohorts 6A and 6B (1000 mg QD / 375 mg BID), twelve subjects, as of Sep. 11, 2012
  patients showing no DLT or disease progression: eleven
[7]; of fifteen (15) CLL patients in cohorts 1-6A/B, first 28-day cycle, as of Sep. 11, 2012
  CLL patients with early increases (≧25%) in absolute lymphocyte counts (ALC): 11 patients
[7]; [16]
  CLL patients with between 25 and 50% reduction of lymph node size: 6/12
  CLL patients with nodal response (>50% reduction of lymph node size): 2/12
[8]
  B-NHL patients with decreased lymph node size: Six
[9]; Day 1 to 15, once daily oral dosing
  PK exposure (AUClast): linear with no accumulation
[9]; once daily oral dosing
  PK: predictable with no accumulation
[10]
  patients showing no DLT: Twenty-four
[11]; cohort C, 750 mg po QD, one patient
  progressive disease after: 73 days
[11]; cohort C, 24 subjects, 750 mg po QD
  patients showing no disease progression: twenty-three
[11]; [17]
  CLL patients with between 25 and 50% reduction of lymph node size: 6/11
  CLL patients with nodal response (>50% reduction of lymph node size): 1/11
[11]; of eighteen (18) patients in Expansion Cohort C, 750 mg QD, first 28-day cycle
  CLL patients with early increases (≧25%) in absolute lymphocyte counts (ALC): 17 patients

## COc1cc(Nc2ncc(F)c(Nc3ccc4c(n3)N(COP(=O)(O)O)C(=O)C(C)(C)O4)n2)cc(OC)c1OC [fostamatinib disodium]
[12]
  clinical response: clinical responses
